Test results as given in article PMC9481570, “A small molecule antagonist of SMN disrupts the interaction between SMN and RNAP II” (Nature Communications, 2022).
“And” between values parts separate entries of the source, which are not always exact repeats. Equal values may be shown once.

Biological target: T1, SMN (Homo sapiens, UniProt Q16637)
T1 construct: endogenous in cells; host or cells: U2OS
Assay: AP-MS chemical proteomics, SMN
Type: binding
Protocol: The samples for AP-MS were prepared following pulldown procedure as previously described with minor modifications. Briefly, U2OS cells were lysed in RIPA buffer and the cell lysate was equally divided into two groups: (1) DMSO group (control group): the cell lysate was incubated with 20 μM biotin-labeled compound 1; (2) Cpmd 1 group (sample group): the cell lysate was incubated with 20 μM biotin-labeled compound 1 and 200 μM free compound 1. Each group contains three biological replicates. They were incubated overnight at 4 °C, then 30 μL streptavidin beads (Thermo Fisher, 20353) was added and incubated at 4 °C for 1 h. The beads were then washed with RIPA buffer for 3 times, 10 min/time.
Beads were rinsed twice with 50 mM TEAB, pH 7.55, before eluting proteins with 25 μL of 5% SDS, 50 mM TEAB, pH 7.55. The sample was then centrifuged at 17,000 × g for 10 min to remove any debris. Proteins were reduced with 20 mM TCEP (Thermo Fisher, 77720) and incubated at 65 °C for 30 min. […]
Samples were analyzed by nanoLC-MS/MS (nanoRSLC, Thermo Fisher) using an Aurora series (Ion Opticks) reversed phase HPLC column (25 cm length × 75 µm inner diameter) and directly injected to an Orbitrap Eclipse (Thermo Fisher) using a 120 min gradient (mobile phase A = 0.1% formic acid, mobile phase B = 99.9% acetonitrile with 0.1% formic acid; hold 2% B for 5 min, 2–6% B in 0.1 min, 6–25% in 100 min, 25–50% in 15 min) at a flow rate of 350 nL/min. Eluted peptide ions were analyzed using a data-dependent acquisition (DDA) method with resolution settings of 120,000 and 15,000 (at m/z 200) for MS1 and MS2 scans, respectively. […]
The data of AP-MS were analyzed as a previously described method with minor modifications. […] Relative protein quantification was based on the label-free quantification incorporated in the MaxQuant software. […] The missing iBAQ intensity was replaced by a random number, which was calculated from a normal distribution with a width of 0.3 and a downshift of 1.8 defined by Perseus software (version 1.6.5.0). The P-value was calculated by performing two-sample Student’s t-test. […]

T1 sequence (Q16637 whole entry): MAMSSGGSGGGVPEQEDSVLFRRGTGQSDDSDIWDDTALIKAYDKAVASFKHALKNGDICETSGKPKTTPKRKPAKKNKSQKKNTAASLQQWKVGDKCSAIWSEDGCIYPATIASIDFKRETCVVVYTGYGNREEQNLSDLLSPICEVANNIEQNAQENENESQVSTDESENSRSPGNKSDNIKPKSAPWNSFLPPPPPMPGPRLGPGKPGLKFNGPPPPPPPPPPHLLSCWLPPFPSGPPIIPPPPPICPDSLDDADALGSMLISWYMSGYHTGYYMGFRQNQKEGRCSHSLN

Cn1c2c(c(=N)c3c1CCC3)CCC2 [Compound 1, 4-methyl-2,3,4,5,6,7-hexahydrodicyclopenta[b,e]pyridin-8(1H)-imine]
Difference (GN=SMN1/SMN2 (Q16637), Cmpd minus DMSO, -LOG(P-value) 4.49648): -8.914 | iBAQ Cmpd (GN=SMN1/SMN2 (Q16637), replicates 1-3): 15.271 and 13.8686 and 14.4098 | log2 FC (Cmpd 1/DMSO), SMN (biotin-Cmpd 1 pulldown, competition with 200 μM compound 1 relative to DMSO, U2OS lysate): −8.9
